The target in assay [1] is Sodium channel protein type 5 subunit alpha (Homo sapiens, UniProt Q14524). In kind it is functional, cell-based.
Assay [2] deals with Beta-1 adrenergic receptor (Homo sapiens, UniProt P08588). In kind it is functional, cell-based.
The target in assay [3] is T1, Corticotropin-releasing factor receptor 1 (Homo sapiens, UniProt P34998).
T1 sequence (P34998 whole entry): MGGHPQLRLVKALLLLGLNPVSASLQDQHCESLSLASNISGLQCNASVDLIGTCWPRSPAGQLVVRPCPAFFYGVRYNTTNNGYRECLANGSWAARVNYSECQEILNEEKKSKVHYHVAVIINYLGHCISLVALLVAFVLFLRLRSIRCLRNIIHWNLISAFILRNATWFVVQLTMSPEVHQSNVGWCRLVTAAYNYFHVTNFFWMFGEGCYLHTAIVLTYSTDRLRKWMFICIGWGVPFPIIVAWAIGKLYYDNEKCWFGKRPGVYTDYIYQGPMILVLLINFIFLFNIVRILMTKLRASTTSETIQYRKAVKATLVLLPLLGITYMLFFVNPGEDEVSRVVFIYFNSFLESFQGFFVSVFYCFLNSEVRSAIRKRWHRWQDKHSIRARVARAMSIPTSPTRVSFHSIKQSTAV

In assay [4] the target is Glucagon receptor (Homo sapiens, UniProt P47871).
Assay [5] deals with Voltage-dependent N-type calcium channel subunit alpha-1B (Rattus norvegicus, UniProt Q02294). In kind it is functional.
Assay [6] concerns the target Cannabinoid receptor 1 (Homo sapiens, UniProt P21554). In kind it is functional.
The target of assay [7] is Neurotensin receptor type 1 (Homo sapiens, UniProt P30989).
In assay [8] the target is 5-hydroxytryptamine receptor 2A (Homo sapiens, UniProt P28223).
Assay [9] concerns the target T2, Peroxisome proliferator-activated receptor gamma (Homo sapiens, UniProt P37231).
T2 sequence (P37231 whole entry): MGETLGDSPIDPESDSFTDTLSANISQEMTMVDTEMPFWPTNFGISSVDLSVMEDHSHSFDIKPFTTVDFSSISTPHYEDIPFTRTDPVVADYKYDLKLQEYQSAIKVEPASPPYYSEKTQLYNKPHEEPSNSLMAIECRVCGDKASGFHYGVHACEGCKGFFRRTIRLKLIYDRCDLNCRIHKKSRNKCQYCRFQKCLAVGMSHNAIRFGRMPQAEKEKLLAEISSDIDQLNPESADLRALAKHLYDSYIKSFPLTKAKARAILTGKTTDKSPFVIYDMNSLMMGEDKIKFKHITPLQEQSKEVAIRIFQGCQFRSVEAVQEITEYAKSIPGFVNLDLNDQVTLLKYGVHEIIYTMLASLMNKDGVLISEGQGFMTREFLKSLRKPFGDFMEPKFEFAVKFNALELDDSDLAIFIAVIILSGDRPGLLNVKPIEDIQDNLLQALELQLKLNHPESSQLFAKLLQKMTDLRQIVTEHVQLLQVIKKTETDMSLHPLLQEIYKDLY
In kind it is functional.

The target of assay [10] is T3, Androgen receptor (Rattus norvegicus, UniProt P15207).
T3 sequence (P15207 whole entry): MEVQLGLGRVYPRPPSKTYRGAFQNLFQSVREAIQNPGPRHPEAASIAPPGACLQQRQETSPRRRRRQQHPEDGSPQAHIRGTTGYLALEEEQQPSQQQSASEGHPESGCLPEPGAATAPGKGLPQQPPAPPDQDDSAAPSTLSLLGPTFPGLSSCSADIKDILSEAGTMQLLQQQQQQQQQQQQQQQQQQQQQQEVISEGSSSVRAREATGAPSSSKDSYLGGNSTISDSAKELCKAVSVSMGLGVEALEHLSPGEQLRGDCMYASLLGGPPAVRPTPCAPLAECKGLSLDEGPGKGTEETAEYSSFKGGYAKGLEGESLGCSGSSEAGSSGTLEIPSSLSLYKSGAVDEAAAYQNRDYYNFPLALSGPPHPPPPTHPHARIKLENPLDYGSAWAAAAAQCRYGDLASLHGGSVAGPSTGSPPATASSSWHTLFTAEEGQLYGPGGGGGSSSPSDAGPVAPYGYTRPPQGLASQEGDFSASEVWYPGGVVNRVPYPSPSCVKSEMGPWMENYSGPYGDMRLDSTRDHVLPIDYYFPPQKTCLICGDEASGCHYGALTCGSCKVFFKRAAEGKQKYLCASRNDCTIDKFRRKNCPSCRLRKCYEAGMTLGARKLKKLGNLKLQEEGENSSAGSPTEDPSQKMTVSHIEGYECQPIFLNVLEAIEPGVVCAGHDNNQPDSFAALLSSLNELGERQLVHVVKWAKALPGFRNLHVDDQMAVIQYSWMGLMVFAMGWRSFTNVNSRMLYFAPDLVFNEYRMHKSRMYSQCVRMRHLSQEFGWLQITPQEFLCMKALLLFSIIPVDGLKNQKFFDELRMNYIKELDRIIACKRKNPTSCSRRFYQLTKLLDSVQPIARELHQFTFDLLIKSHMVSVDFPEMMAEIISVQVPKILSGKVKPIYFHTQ

Assay [11] addresses Histamine H1 receptor (Homo sapiens, UniProt P35367). In kind it is functional, cell-based.
Assay [12] concerns the target T4, Muscarinic acetylcholine receptor M2 (Homo sapiens, UniProt P08172).
T4 sequence (P08172 whole entry): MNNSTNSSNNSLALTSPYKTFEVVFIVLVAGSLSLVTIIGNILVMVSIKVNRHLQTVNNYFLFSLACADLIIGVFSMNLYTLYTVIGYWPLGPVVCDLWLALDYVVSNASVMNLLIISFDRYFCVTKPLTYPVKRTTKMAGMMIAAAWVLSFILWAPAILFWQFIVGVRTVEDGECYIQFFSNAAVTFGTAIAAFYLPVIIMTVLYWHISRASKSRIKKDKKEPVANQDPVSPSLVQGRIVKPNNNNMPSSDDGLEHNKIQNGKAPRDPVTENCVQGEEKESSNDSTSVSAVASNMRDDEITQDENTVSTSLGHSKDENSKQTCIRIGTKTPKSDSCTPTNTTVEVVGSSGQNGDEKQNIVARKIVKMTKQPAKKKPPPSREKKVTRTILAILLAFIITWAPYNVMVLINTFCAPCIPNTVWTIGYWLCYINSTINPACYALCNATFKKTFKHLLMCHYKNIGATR

Each structure is given as a SMILES string.
Note: assay procedure not described here.

Beta-1 adrenergic receptor, sequence (P08588 whole entry): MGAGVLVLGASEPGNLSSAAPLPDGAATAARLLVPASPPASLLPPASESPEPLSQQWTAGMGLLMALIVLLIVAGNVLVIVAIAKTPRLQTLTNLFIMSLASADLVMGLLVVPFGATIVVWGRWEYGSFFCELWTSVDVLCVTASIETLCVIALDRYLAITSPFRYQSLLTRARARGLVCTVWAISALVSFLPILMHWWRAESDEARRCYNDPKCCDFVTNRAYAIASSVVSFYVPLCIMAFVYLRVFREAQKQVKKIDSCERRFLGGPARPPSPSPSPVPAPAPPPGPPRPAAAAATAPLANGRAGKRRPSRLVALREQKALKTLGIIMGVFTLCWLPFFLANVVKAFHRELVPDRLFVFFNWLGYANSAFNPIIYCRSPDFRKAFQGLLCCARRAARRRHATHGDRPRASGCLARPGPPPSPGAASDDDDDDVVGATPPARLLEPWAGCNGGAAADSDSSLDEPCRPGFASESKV
Cannabinoid receptor 1, sequence (P21554 whole entry): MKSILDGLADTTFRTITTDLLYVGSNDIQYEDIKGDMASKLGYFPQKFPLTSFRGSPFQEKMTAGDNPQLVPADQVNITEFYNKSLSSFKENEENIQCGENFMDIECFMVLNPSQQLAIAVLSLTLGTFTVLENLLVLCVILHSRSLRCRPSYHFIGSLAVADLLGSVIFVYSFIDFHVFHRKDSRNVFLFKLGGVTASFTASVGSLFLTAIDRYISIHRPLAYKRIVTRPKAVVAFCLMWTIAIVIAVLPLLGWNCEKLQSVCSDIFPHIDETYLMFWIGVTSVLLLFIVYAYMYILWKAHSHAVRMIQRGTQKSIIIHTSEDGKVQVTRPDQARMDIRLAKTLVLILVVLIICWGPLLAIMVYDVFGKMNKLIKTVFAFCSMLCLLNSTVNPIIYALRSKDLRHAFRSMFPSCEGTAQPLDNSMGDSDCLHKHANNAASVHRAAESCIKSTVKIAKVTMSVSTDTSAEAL
Glucagon receptor, sequence (P47871 whole entry): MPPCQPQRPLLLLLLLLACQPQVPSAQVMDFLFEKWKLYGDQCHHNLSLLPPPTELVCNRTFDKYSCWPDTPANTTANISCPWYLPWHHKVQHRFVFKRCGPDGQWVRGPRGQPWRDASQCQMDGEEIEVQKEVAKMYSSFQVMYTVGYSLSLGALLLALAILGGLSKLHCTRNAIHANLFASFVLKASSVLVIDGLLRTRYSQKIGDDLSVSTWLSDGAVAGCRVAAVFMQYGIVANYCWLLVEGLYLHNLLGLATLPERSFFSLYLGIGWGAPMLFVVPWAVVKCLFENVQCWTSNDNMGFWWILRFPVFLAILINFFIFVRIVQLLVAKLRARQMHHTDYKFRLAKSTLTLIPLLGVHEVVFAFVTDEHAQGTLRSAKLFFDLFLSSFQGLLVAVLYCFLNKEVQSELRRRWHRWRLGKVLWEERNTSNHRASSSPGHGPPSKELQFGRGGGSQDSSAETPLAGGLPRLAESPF
5-hydroxytryptamine receptor 2A, sequence (P28223 whole entry): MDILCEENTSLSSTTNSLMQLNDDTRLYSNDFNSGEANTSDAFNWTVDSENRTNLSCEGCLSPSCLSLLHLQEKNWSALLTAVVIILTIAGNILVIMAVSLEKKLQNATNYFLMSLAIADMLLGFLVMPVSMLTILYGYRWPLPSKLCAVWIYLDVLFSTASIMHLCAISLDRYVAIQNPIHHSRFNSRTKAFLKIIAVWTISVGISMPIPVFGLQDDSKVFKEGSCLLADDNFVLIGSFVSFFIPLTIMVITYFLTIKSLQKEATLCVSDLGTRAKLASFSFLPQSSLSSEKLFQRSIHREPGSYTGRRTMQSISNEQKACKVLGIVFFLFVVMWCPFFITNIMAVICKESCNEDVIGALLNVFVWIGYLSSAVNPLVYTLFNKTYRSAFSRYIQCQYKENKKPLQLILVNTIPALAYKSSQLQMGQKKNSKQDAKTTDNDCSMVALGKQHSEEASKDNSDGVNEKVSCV
Voltage-dependent N-type calcium channel subunit alpha-1B, sequence (Q02294 whole entry): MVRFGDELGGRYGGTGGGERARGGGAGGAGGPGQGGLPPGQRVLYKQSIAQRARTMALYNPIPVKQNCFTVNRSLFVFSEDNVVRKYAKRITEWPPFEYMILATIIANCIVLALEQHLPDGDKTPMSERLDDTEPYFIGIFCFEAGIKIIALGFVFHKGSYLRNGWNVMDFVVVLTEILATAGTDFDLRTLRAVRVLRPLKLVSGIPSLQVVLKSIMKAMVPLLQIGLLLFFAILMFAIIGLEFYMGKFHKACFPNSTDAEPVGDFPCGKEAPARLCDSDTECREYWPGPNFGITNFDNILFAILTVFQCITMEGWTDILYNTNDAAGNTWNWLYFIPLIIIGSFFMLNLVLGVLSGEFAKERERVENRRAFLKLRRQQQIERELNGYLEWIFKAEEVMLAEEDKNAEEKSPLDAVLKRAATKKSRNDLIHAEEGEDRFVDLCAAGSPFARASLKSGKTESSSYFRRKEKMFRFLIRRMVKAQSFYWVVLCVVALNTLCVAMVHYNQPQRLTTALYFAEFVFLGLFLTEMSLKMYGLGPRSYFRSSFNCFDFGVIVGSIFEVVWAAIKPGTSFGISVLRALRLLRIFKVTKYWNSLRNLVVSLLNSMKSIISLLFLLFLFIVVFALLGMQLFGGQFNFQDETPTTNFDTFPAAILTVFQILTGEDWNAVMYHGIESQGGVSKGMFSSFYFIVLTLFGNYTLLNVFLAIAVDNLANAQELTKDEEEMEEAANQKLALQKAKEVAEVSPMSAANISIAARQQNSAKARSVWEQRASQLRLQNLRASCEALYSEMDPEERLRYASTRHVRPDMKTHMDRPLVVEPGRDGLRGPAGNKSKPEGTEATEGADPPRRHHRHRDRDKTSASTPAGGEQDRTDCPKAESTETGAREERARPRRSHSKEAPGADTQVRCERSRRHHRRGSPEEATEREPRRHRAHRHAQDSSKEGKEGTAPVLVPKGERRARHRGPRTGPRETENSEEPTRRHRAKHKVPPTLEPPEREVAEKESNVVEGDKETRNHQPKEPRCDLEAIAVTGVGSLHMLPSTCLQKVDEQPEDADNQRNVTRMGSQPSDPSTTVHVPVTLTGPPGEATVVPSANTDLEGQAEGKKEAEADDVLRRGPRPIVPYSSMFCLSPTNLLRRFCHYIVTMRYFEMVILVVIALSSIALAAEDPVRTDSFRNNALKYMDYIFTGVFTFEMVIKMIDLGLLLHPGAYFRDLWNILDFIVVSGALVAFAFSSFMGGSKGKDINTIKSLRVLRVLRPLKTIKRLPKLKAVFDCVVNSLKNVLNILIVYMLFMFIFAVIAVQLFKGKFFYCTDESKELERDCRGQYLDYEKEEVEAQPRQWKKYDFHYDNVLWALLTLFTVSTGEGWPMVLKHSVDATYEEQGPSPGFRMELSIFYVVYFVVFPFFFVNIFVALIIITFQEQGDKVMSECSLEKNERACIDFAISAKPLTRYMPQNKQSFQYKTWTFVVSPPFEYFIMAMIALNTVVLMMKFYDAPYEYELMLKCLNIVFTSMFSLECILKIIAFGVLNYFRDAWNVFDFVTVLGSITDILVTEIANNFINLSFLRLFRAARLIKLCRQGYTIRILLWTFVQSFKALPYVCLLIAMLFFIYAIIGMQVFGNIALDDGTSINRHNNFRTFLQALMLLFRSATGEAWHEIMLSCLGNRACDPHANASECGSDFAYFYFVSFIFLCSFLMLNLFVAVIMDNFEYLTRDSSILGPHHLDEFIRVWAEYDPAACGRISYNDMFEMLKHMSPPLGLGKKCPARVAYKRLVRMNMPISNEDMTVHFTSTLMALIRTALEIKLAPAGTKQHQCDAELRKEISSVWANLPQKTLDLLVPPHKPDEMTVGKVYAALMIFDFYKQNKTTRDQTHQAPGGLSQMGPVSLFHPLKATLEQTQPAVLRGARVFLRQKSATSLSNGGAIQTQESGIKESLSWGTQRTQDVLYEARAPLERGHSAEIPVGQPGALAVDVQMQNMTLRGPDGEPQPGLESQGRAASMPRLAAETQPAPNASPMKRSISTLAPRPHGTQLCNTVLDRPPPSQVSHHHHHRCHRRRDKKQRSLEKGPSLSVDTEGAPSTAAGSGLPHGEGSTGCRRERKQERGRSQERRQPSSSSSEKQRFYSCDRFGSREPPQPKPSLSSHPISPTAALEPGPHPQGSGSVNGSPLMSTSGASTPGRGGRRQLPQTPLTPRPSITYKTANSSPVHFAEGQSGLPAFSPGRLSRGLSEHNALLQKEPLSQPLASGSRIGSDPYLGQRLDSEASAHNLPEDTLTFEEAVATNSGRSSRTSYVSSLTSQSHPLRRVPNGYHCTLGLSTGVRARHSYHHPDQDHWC
Neurotensin receptor type 1, sequence (P30989 whole entry): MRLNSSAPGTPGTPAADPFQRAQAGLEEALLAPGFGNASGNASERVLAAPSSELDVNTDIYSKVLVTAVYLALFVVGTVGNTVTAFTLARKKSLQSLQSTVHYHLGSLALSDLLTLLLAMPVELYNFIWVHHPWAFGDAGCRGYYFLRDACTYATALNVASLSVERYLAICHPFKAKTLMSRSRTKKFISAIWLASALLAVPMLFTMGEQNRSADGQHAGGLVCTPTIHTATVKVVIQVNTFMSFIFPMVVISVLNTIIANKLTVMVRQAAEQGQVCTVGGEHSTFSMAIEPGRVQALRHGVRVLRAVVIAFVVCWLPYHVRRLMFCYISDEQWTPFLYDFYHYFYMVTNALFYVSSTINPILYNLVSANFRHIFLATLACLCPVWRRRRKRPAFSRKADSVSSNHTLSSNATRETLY

Take `N#Cc1ccccc1-c1cc(-c2ccccn2)cn(-c2ccccc2)c1=O`: the AC50 in [1] and in assay [2] was over 30 µM each time.
In the case of `N=C(N)NCCCCCCC(=O)NC(O)C(=O)NCCCCNCCCN` (configuration not stated), in [2], the AC50 was over 30 µM.
In the case of `NCCCC(O)(P(=O)(O)O)P(=O)(O)O` [ALENDRONIC ACID], the AC50 was over 30 µM in assay [3]; over 30 µM in assay [4]; over 10 µM in assay [5]; over 30 µM in assay [1]; over 10 µM in assay [6]; over 30 µM in assay [7].
For `O=C(CCCN1CCC(n2c(O)nc3ccccc32)CC1)c1ccc(F)cc1` [BENPERIDOL], the figures for the AC50 in assay [2] and in [8] were over 30 µM and 0.0035 µM, respectively.
In the case of `CCN(CC)C(=O)C1CN2CCc3cc(OC)c(OC)cc3C2CC1OC(C)=O` (configuration not stated) [BENZQUINAMIDE], the AC50 in [9] was over 30 µM; in [10] it was over 10 µM; in assay [11], over 30 µM; in assay [8], 0.588 µM.
Compound `C#C[C@]1(O)CC[C@H]2[C@@H]3CCC4=CC(=O)CCC4=C3C=C[C@@]21CC` [GESTRINONE] displayed an AC50 in assay [2] of over 30 µM.
In the case of `CCCCCCOC(=O)CCC(=O)CN` [HEXAMINOLEVULINATE], the AC50 in assay [2] was over 30 µM.
Regarding `COC1=C(OC)C(=O)C(CCCCCCCCCCO)=C(C)C1=O` [IDEBENONE], the AC50 in assay [3] is over 30 µM; in assay [4], over 30 µM; in assay [5], over 10 µM; in [10] it was over 30 µM; in [6], over 10 µM; in [12], over 10 µM. For the same compound, in assay [7], the AC50 was over 30 µM.
For the compound `O=C1CN=C(c2ccccc2)c2cc(Cl)ccc2N1` [NORDAZEPAM], the AC50 is over 30 µM in assay [3]; over 30 µM in assay [4]; over 10 µM in assay [5]; 0.0006 µM in [6]; over 10 µM in assay [12]; 14 µM in assay [7].
As for `CC(CCc1ccccc1)NC(C)C(O)c1ccc(O)cc1` (configuration not stated) [NYLIDRIN], the AC50 in assay [3] was over 30 µM; in [4], over 30 µM; in assay [5], over 10 µM; in assay [6], over 10 µM; in assay [12], over 10 µM; in assay [7], over 30 µM. In assay [8], this compound returned an AC50 of 2.5 µM.
Take `O=C1Nc2ccc(Cl)cc2C(c2ccccc2)=NC1O` (configuration not stated) [OXAZEPAM]: the AC50 in assay [3] is over 30 µM; in assay [4] it was over 30 µM; in [5] it was over 10 µM; in assay [6], over 10 µM; in assay [12], over 10 µM; in assay [11], over 30 µM. Moreover, the AC50 was over 30 µM in assay [7] and over 10 µM in assay [8].
With `[H]/N=C(/N)N[C@H]1[C@H](O)[C@@H](O)[C@H](O[C@@H]2O[C@@H](C)[C@](O)(C=O)[C@H]2O[C@@H]2O[C@@H](CO)[C@H](O)[C@@H](O)[C@@H]2NC)[C@@H](N/C(N)=N\[H])[C@@H]1O` [STREPTOMYCIN], the AC50 was over 30 µM in assay [3]; over 30 µM in assay [4]; over 10 µM in [5]; over 10 µM in [6]; over 30 µM in assay [7].
With `COc1c(O[C@@H]2O[C@H](CO)[C@@H](O)[C@H](O)[C@H]2O)cc2c(c1OC)-c1ccc(SC)c(=O)cc1[C@@H](NC(C)=O)CC2` [THIOCOLCHICOSIDE], the AC50 in assay [2] is over 30 µM.
For the compound `N#C[C@@H]1CCCN1C(=O)CNC12CC3CC(CC(O)(C3)C1)C2` [VILDAGLIPTIN], the AC50 in assay [5] is over 10 µM; in assay [10], over 30 µM; in [6] it was over 10 µM; in assay [12], over 10 µM; in assay [7], over 10 µM; in assay [8], over 10 µM.

The term AC50 denotes the concentration at which the activity in the assay is half-maximal.

(Values after ChEMBL document CHEMBL5291721, “A preclinical secondary pharmacology resource illuminates target-adverse drug reaction associations of marketed drugs” (Nat Commun, 2023).)
